In article PMC8162404, “Proteomimetic surface fragments distinguish targets by function” (Chemical Science, 2020):

How the values were obtained:
Test in all cases: Pull-down assay with immobilized protein and LSM libraries
[1] = biological target: T1, CaM (Bos taurus, UniProt P62157); assay type: binding, bovine; details: H12 library; 1:2 stoichiometry assumed; read-out: Surface mapping KD (apparent)
T1 construct: made in house; host or cells: E. coli BL21 (DE3)
Summary of the method: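 His-tagged protein immobilized on Co-NTA resin, equilibrated 30 min at room temperature with LSM sublibraries (64 members, […]), equimolar protein to total probe. CaM buffer: 20 mM HEPES pH 7.4, 150 mM NaCl, 5 mM CaCl2. Bound fractions from HPLC-MS loss of unbound probe versus protein-free resin control; Kd derived.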

[2] = biological target: T2, S100B (Homo sapiens, UniProt P04271); assay type: binding; details: H12 library; 1:1 binding assumed; read-out: Surface mapping KD (apparent)
T2 construct: made in house; host or cells: Escherichia coli BL21(DE3)
T2 sequence (P04271 1-92): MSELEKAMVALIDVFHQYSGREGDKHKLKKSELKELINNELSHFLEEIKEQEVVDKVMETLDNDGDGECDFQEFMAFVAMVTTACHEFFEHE
Summary of the method: (§1)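 Buffers were HEPES pH 7.4 with 150 mM NaCl, plus 1 mM TCEP and 1 mM CaCl2 (50 mM HEPES) for S100A4 and S100B, 1 mM TCEP for Gal-1, and no additive for RecQ-WH. Immobilized protein at 64 µM was equilibrated 30 min with the LSM sublibrary, and unbound probes were measured by LC-MS.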

[3] = biological target: T3, Gal-1 (Homo sapiens, UniProt P09382); assay type: binding; details: H12 library; 1:1 binding assumed; read-out: Surface mapping KD (apparent)
T3 construct: made in house; host or cells: E. coli BL21(DE3)
T3 sequence (P09382 whole entry): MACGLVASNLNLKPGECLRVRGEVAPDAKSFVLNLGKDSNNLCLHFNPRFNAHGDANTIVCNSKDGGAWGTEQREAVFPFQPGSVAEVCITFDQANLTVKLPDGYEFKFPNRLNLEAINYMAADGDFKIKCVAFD
Summary of the method: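 His-tagged protein immobilized on Co-NTA resin (64 µM) in 20 mM HEPES pH 7.4, 150 mM NaCl, equilibrated 30 min at room temperature with foldamer LSM sublibraries at equimolar total concentration. Unbound fractions quantified by HPLC-MS versus protein-free resin control; apparent KD assumes 1:1 binding.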

[4] = biological target: T4, S100A4 (Homo sapiens, UniProt P26447); assay type: binding; details: H12 library; 1:1 binding assumed; read-out: Surface mapping KD (apparent)
T4 construct: made in house; host or cells: Escherichia coli BL21(DE3)
T4 sequence (P26447 whole entry): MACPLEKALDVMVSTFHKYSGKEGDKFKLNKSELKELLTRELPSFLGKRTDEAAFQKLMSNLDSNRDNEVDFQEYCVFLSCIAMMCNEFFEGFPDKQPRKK
Summary of the method: as §1

| Structure (SMILES) | Kd [1] | Kd [2] | Kd [3] | Kd [4] |
| --- | --- | --- | --- | --- |
| CSCC[C@@H](CC(=O)N[C@H]1CCC[C@@H]1C(=O)N[C@H]1CCC[C@@H]1C(N)=O)NC(=O)[C@H]1CCC[C@@H]1NC(=O)[C@H]1CCC[C@@H]1NC(=O)C[C@H](CC(C)C)NC(=O)[C@H]1CCC[C@@H]1NC(=O)[C@H]1CCC[C@@H]1N [H12 LM] | 211 µM | 74 µM | 378 µM | 381 µM |
| CC(C)C[C@@H](CC(=O)N[C@H]1CCC[C@@H]1C(=O)N[C@H]1CCC[C@@H]1C(=O)N[C@@H](CCCNC(=N)N)CC(=O)N[C@H]1CCC[C@@H]1C(=O)N[C@H]1CCC[C@@H]1C(N)=O)NC(=O)[C@H]1CCC[C@@H]1NC(=O)[C@H]1CCC[C@@H]1N [H12 LR] | 236 µM | 29 µM | 120 µM | 345 µM |
| CC(C)C[C@@H](CC(=O)N[C@H]1CCC[C@@H]1C(=O)N[C@H]1CCC[C@@H]1C(=O)N[C@H](CC(=O)N[C@H]1CCC[C@@H]1C(=O)N[C@H]1CCC[C@@H]1C(N)=O)Cc1c[nH]c2ccccc12)NC(=O)[C@H]1CCC[C@@H]1NC(=O)[C@H]1CCC[C@@H]1N [H12 LW] | 19 µM | 11 µM | 368 µM | 28 µM |
| CC(C)C[C@@H](CC(=O)N[C@H]1CCC[C@@H]1C(=O)N[C@H]1CCC[C@@H]1C(=O)N[C@H](CC(=O)N[C@H]1CCC[C@@H]1C(=O)N[C@H]1CCC[C@@H]1C(N)=O)Cc1ccc(O)cc1)NC(=O)[C@H]1CCC[C@@H]1NC(=O)[C@H]1CCC[C@@H]1N [H12 LY] | 28 µM | 56 µM | 347 µM | 100 µM |
| CC[C@H](C)[C@@H](CC(=O)N[C@H]1CCC[C@@H]1C(=O)N[C@H]1CCC[C@@H]1C(N)=O)NC(=O)[C@H]1CCC[C@@H]1NC(=O)[C@H]1CCC[C@@H]1NC(=O)C[C@H](CCSC)NC(=O)[C@H]1CCC[C@@H]1NC(=O)[C@H]1CCC[C@@H]1N [H12 MI] | 101 µM | 54 µM | 281 µM | 358 µM |
| N=C(N)NCCC[C@@H](CC(=O)N[C@H]1CCC[C@@H]1C(=O)N[C@H]1CCC[C@@H]1C(=O)N[C@H](CC(=O)N[C@H]1CCC[C@@H]1C(=O)N[C@H]1CCC[C@@H]1C(N)=O)Cc1ccccc1)NC(=O)[C@H]1CCC[C@@H]1NC(=O)[C@H]1CCC[C@@H]1N [H12 RF] | 96 µM | 40 µM | 202 µM | 140 µM |
| CC[C@H](C)[C@@H](CC(=O)N[C@H]1CCC[C@@H]1C(=O)N[C@H]1CCC[C@@H]1C(N)=O)NC(=O)[C@H]1CCC[C@@H]1NC(=O)[C@H]1CCC[C@@H]1NC(=O)C[C@H](CCCNC(=N)N)NC(=O)[C@H]1CCC[C@@H]1NC(=O)[C@H]1CCC[C@@H]1N [H12 RI] | 252 µM | 56 µM | 194 µM | 245 µM |
| CC(C)C[C@@H](CC(=O)N[C@H]1CCC[C@@H]1C(=O)N[C@H]1CCC[C@@H]1C(N)=O)NC(=O)[C@H]1CCC[C@@H]1NC(=O)[C@H]1CCC[C@@H]1NC(=O)C[C@H](CCCNC(=N)N)NC(=O)[C@H]1CCC[C@@H]1NC(=O)[C@H]1CCC[C@@H]1N [H12 RL] | 252 µM | 56 µM | 194 µM | 245 µM |
| CSCC[C@@H](CC(=O)N[C@H]1CCC[C@@H]1C(=O)N[C@H]1CCC[C@@H]1C(N)=O)NC(=O)[C@H]1CCC[C@@H]1NC(=O)[C@H]1CCC[C@@H]1NC(=O)C[C@H](CCCNC(=N)N)NC(=O)[C@H]1CCC[C@@H]1NC(=O)[C@H]1CCC[C@@H]1N [H12 RM] | 464 µM | 96 µM | 201 µM | 335 µM |
| N=C(N)NCCC[C@@H](CC(=O)N[C@H]1CCC[C@@H]1C(=O)N[C@H]1CCC[C@@H]1C(N)=O)NC(=O)[C@H]1CCC[C@@H]1NC(=O)[C@H]1CCC[C@@H]1NC(=O)C[C@H](CCCNC(=N)N)NC(=O)[C@H]1CCC[C@@H]1NC(=O)[C@H]1CCC[C@@H]1N [H12 RR] | 123 µM | 89 µM | 181 µM | 210 µM |
